Experimental data from US20110136751A1, “Use of Polyphenols in the Treatment of Cancer” (Green Molecular, priority 2009, published 2011).

Experiments:
[1] = cited from earlier work
[2] = test system: Human melanoma (A375), breast cancer (MCF7), lung cancer (A549), and colon cancer (HT29) cell lines; test: Apoptosis induction (flow cytometry); assay type: cell-based; details: with increasing concentration
Protocol: The aim of this study was to determine whether pterostilbene causes cytotoxicity in human tumors at concentrations that are reliable under in vivo conditions; and, to identify which death-related molecular mechanisms may be activated by the compound. Human melanoma (A375), breast cancer (MCF7), lung cancer (A549), and colon cancer (HT29) cell lines were used in this set of experiments. […] Cell cycle and apoptosis induction were determined by flow cytometry. […] The tumor cell death induced by pterostilbene appears to be partially independent of caspase activity.

human tumor cells = test: Autophagy activation (LC3-II, P62/SQSTM1, GFP-LC3); assay type: cell-based; details: at bioavailable concentrations
Source text: In addition, there are different molecular events associating pterostilbene with autophagy activation: a) an increase of LC3-II form, indicating the processing of LC3 protein to its lapidated form; and b) an increase in P62/SQSTM1 bands and GFP-LC3 punctuation, indicating P62 accumulation and translocation of LC3 to autophagic membranes, respectively. An acute loss of tubulin organization, indicating cell cycle arrest, was also detected by immunochemistry.

SMILES | reduction in glomerular flow rate ([1]; 1400 mg QUER/m^2, the two affected patients, first 24 hours) [%] | tolerability ([1]; daily i.v. bolus doses of 100 mg QUER/m2, human patients) | renal toxicity ([1]; i.v. bolus of 1400 mg QUER/m^2 once weekly for three weeks) | apoptosis [2] | autophagy (human tumor cells)
O=c1c(O)c(-c2ccc(O)c(O)c2)oc2cc(O)cc(O)c12 [QUER, quercetin] | ~20 | well tolerated | two of ten patients |  | 
COc1cc(/C=C/c2ccc(O)cc2)cc(OC)c1 [t-PTER, trans-3,5-dimethoxy-4′-hydroxystilbene] |  |  |  | progressively activated | activates autophagy
Oc1ccc(/C=C/c2cc(O)cc(O)c2)cc1 [RI, trans-3,5,4′-trihydroxystilbene, reference compound] |  |  |  | progressively activated | 
